Test results as given in patent US12247010B2, “Tubulin inhibitors” (LIN BIOSCIENCE PTY LTD., priority 2017, dated 2025).
pIC50: −log10 of the molar value.

How the values were obtained:
tubulin = assay: Tubulin polymerization assay (Cytoskeleton, Inc. inhibitor screening protocol); assay type: biochemical; conditions: 3 μM, 37C, compared to DMSO control
Method: Example 4. Tubulin Polymerization Assay
Compounds described herein were tested in a tubulin polymerization inhibition assay using the general manufacturer's protocol for inhibitor screening (Cytoskeleton, Inc. BK01 IP). DMSO was used as a negative control, and vinblastine was tested as a positive control. All compounds were tested at a concentration of 3 μM, and incubation was carried out at 37C for 60 minutes. Results were calculated as a percent inhibition (compared to DMSO control) after 60 min of incubation, the results of which are shown in Table 3.

U87MG cells = assay: Cytotoxicity assay (cell viability, CellTiter 96 Aqueous MTS); assay type: cell-based; conditions: Homo sapiens, U-87 MG, 72 h, 72 hours incubation, starting concentration 50 uM, 9 point half log dilution, average where tested repeatedly
Procedure, shortened: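 U87MG cells plated at 7×10^3 cells/well overnight, then treated 72 h with 9-point half-log dilutions from a 50 uM starting concentration. Viability measured with CellTiter 96 Aqueous MTS; IC50 calculated from viability.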

Row | SMILES | % Tubulin Polymerization at 60 min (tubulin) | pIC50 (U87MG cells)
1 | O=C(NCCCc1ccc(-c2ccccc2F)cc1)c1ccc2[nH]cnc2c1 [Compound 136, N-(3-(2′-fluoro-[1,1′-biphenyl]-4-yl)propyl)-1H-benzo[d]imidazole-5-carboxamide] | A (A is < 20%) | > 6.30
2 | Cc1ncc(C(=O)NCCCc2ccc(-c3ccccc3F)cc2)s1 [Compound 138, N-(3-(2′-fluoro-[1,1′-biphenyl]-4-yl)propyl)-2-methylthiazole-5-carboxamide] | A (A is < 20%) | > 6.30
3 | O=C(CCCc1ccc(-c2ccc3[nH]c(=O)ccc3c2)cc1)Nc1cccnc1 [Compound 207, 4-(4-(2-oxo-1,2-dihydroquinolin-6-yl)phenyl)-N-(pyridin-3-yl)butanamide] | D (D is 61-80%) | > 6.30
4 | O=C(CCCc1ccc(-c2ccc3cnccc3c2)cc1)Nc1cccnc1 [Compound 214, 4-(4-(isoquinolin-6-yl)phenyl)-N-(pyridin-3-yl)butanamide] | F (F is 81-100%) | > 6.30
5 | Cc1ccc(C(=O)NCCCc2ccc(-c3ccc4c(cnn4C)c3)cc2)cn1 [Compound 226, 6-methyl-N-(3-(4-(1-methyl-1H-indazol-5-yl)phenyl)propyl)nicotinamide] | C (C is 41-60%) | > 6.30
6 | Cc1cc(C(=O)NCCCc2ccc(-c3ccc4[nH]ncc4c3C)cc2)no1 [Compound 230, 5-methyl-N-(3-(4-(4-methyl-1H-indazol-5-yl)phenyl)propyl)isoxazole-3-carboxamide] | C (C is 41-60%) | > 6.30
7 | Cn1ncc2cc(-c3ccc(CCCNC(=O)c4cnc(N)nc4)cc3)ccc21 [Compound 232, 2-amino-N-(3-(4-(1-methyl-1H-indazol-5-yl)phenyl)propyl)pyrimidine-5-carboxamide] | C (C is 41-60%) | > 6.30
8 | Cc1cc(C(=O)NCCCc2ccc(-c3cnc4[nH]ccc4c3)cc2)n(C)n1 [Compound 233, N-(3-(4-(1H-pyrrolo[2,3-b]pyridin-5-yl)phenyl)propyl)-1,3-dimethyl-1H-pyrazole-5-carboxamide] | A (A is < 20%) | > 6.30
9 | Cc1cc(C(=O)NCCCc2ccc(-c3ccc4ncccc4c3)cc2)no1 [Compound 239, 5-methyl-N-(3-(4-(quinolin-6-yl)phenyl)propyl)isoxazole-3-carboxamide] | C (C is 41-60%) | > 6.30
10 | Cc1ccc(C(=O)NCCCc2ccc(-c3ccc4[nH]ncc4c3C)cc2)cn1 [Compound 243, 6-methyl-N-(3-(4-(4-methyl-1H-indazol-5-yl)phenyl)propyl)nicotinamide] | A (A is < 20%) | > 6.30
11 | O=C(Nc1ccc2[nH]ccc2c1)N1CCN(c2ccc(-c3ccccc3F)cc2)CC1 [Compound 280, 4-(2′-fluoro-[1,1′-biphenyl]-4-yl)-N-(1H-indol-5-yl)piperazine-1-carboxamide] | F (F is 81-100%) | > 6.30
